From US9187464B2, “TRPV4 antagonists” (GlaxoSmithKline Intellectual Property (No. 2) Limited, priority 2011, dated 2015)

Target: T1, human TRPV4 (Homo sapiens, UniProt Q9HBA0)
T1 construct: expressed in transfected cells; host or cells: HEK-293-MSR-II cells transduced with 1% BacMam virus
Test: Ligand-gated assay (Fluo4 calcium, FLIPR; inhibition of agonist-induced activation)
Format: cell-based
Conditions: HEK-293-MSR-II cells transduced with BacMam human TRPV4; agonist at EC80
Description: TRP channel activation/opening results in an influx of divalent and monovalent cations including calcium. The resulting changes in intracellular calcium were monitored using a calcium selective fluorescent dye Fluo4 (MDS Analytical Technologies). Dye loaded cells were initially exposed to test compound to verify a lack of agonist activity. Cells were subsequently activated by addition of an agonist and inhibition of the agonist-induced activation was recorded. Human embryonic kidney 293 cells stably expressing the macrophage scavenger receptor class II (HEK-293-MSR-II) and transduced with 1% BacMam (J. P. Condreay, S. M. Witherspoon, W. C. Clay and T. A. Kost, Proc Natl Acad Sci 96 (1999), pp. 127-132) virus expressing the human TRPV4 gene were plated at 15000 cells/well in a volume of 50 μL in a 384 well poly-D lysine coated plate. Cells were incubated for 24 hours at 37 degrees and 5% CO2. Media was then aspirated using a Tecan Plate-washer and replaced with 20 μL of dye loading buffer: HBSS, 500 uM Brilliant Black (MDS Analytical Technologies), 2 uM Fluo-4. Dye loaded plates were then incubated in the dark at room temperature for 1-1.5 hours. 10 μL of test compound diluted in HBSS (HBSS with 1.5 mM Calcium Chloride, 1.5 mM Magnesium Chloride and 10 mM HEPES. pH 7.4), +0.01% Chaps was added to the plate, incubated for 10 min at room temperature in the dark and then 10 μL of agonist was added at a final concentration equal to the agonist EC80. Calcium release was measured using the FLIPRtetra (MDS Analytical Technologies) or FLIPR384 (MDS Analytical Technologies).
IC50 between 0.1-10 nM (+++), >10-50 nM (++), >50-500 nM (+).

T1 sequence (Q9HBA0 whole entry): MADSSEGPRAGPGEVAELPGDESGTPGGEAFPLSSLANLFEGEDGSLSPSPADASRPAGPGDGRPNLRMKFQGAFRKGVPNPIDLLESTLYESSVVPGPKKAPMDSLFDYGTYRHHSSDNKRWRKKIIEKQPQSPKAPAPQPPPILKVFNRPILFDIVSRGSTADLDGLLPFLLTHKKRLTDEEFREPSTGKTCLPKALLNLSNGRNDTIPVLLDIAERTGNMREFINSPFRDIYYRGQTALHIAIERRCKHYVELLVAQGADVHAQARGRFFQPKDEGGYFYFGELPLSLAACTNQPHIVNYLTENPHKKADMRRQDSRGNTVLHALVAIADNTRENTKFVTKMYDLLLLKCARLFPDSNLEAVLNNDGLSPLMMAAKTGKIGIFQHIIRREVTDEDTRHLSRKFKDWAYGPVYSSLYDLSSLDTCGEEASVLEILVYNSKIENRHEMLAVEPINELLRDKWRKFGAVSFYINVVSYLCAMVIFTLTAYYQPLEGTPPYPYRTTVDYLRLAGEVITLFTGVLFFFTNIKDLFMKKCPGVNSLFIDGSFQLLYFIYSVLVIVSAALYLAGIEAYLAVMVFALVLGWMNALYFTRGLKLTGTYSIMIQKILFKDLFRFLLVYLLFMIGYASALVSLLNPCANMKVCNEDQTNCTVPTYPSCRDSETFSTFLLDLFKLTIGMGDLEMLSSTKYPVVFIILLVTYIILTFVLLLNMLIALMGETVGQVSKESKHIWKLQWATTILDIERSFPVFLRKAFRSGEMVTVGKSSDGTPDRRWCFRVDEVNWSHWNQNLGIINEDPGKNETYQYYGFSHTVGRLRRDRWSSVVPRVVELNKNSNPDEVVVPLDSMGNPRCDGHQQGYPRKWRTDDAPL

Row | IC50 | Compound
1 | 50 to 500 nM | CC(C)(CO)c1cc(N2C[C@@]3(CCC[C@](C)(Cn4cnc5ccc(C#N)cc54)C3)OC2=O)on1 [Example 21, 1-(((5S,7S)-3-(3-(1-Hydroxy-2-methylpropan-2-yl)isoxazol-5-yl)-7-methyl-2-oxo-1-oxa-3-azaspiro[4.5]decan-7-yl)methyl)-1H-benzo[d]imidazole-6-carbonitrile]
2 | 10 to 50 nM | Cc1ccc(N2C[C@@]3(CCC[C@](C)(Cn4cnc5ccc(C#N)cc54)C3)OC2=O)nc1 [Example 29, 1-{[(5S,7S)-7-methyl-3-(5-methyl-2-pyridinyl)-2-oxo-1-oxa-3-azaspiro[4.5]dec-7-yl]methyl}-1H-benzimidazole-6-carbonitrile]
3 | 10 to 50 nM | CC(C)c1cc(N2C[C@@]3(CCC[C@](C)(Cn4cnc5ccc(C#N)cc54)C3)OC2=O)on1 [Example 30, 1-({(5S,7S)-7-methyl-3-[3-(1-methylethyl)-5-isoxazolyl]-2-oxo-1-oxa-3-azaspiro[4.5]dec-7-yl}methyl)-1H-benzimidazole-6-carbonitrile]
4 | 0.1 to 10 nM | CC(C)Cc1cc(N2C[C@@]3(CCC[C@](C)(Cn4cnc5ccc(C#N)cc54)C3)OC2=O)on1 [Example 31, 1-({(5S,7S)-7-methyl-3-[3-(2-methylpropyl)-5-isoxazolyl]-2-oxo-1-oxa-3-azaspiro[4.5]dec-7-yl}methyl)-1H-benzimidazole-6-carbonitrile]
5 | 10 to 50 nM | CCc1cc(N2C[C@@]3(CCC[C@](C)(Cn4cnc5ccc(C#N)cc54)C3)OC2=O)on1 [Example 33, 1-{[(5S,7S)-3-(3-ethyl-5-isoxazolyl)-7-methyl-2-oxo-1-oxa-3-azaspiro[4.5]dec-7-yl]methyl}-1H-benzimidazole-6-carbonitrile]
6 | 0.1 to 10 nM | C[C@]1(Cn2cnc3ccc(C#N)cc32)CCC[C@@]2(CN(c3cc(C4CC4)no3)C(=O)O2)C1 [Example 34, 1-{[(5S,7S)-3-(3-cyclopropyl-5-isoxazolyl)-7-methyl-2-oxo-1-oxa-3-azaspiro[4.5]dec-7-yl]methyl}-1H-benzimidazole-6-carbonitrile]
7 | 10 to 50 nM | C[C@]1(Cn2cnc3ccc(C#N)cc32)CCC[C@@]2(CN(c3cc(-c4ccccc4)no3)C(=O)O2)C1 [Example 35, 1-{[(5S,7S)-7-methyl-2-oxo-3-(3-phenyl-5-isoxazolyl)-1-oxa-3-azaspiro[4.5]dec-7-yl]methyl}-1H-benzimidazole-6-carbonitrile]
8 | 10 to 50 nM | C[C@]1(Cn2cnc3ccc(C#N)cc32)CCC[C@@]2(CN(c3cc(C(F)(F)F)no3)C(=O)O2)C1 [Example 37, 1-({(5S,7S)-7-methyl-2-oxo-3-[3-(trifluoromethyl)-5-isoxazolyl]-1-oxa-3-azaspiro[4.5]dec-7-yl}methyl)-1H-benzimidazole-6-carbonitrile]
9 | 10 to 50 nM | C[C@]1(Cn2cnc3ccc(C#N)cc32)CCC[C@@]2(CN(c3cc(C4(C#N)CC4)no3)C(=O)O2)C1 [Example 38, 1-({(5S,7S)-3-[3-(1-cyanocyclopropyl)-5-isoxazolyl]-7-methyl-2-oxo-1-oxa-3-azaspiro[4.5]dec-7-yl}methyl)-1H-benzimidazole-6-carbonitrile]
10 | 0.1 to 10 nM | CC(C)(F)c1cc(N2C[C@@]3(CCC[C@](C)(Cn4cnc5ccc(C#N)cc54)C3)OC2=O)on1 [Example 39, 1-(((5S,7S)-3-(3-(2-fluoropropan-2-yl)isoxazol-5-yl)-7-methyl-2-oxo-1-oxa-3-azaspiro[4.5]decan-7-yl)methyl)-1H-benzo[d]imidazole-6-carbonitrile]
11 | 10 to 50 nM | C[C@]1(Cn2cnc3ccc(C#N)cc32)CCC[C@@]2(CN(c3cc(C4CCC4)no3)C(=O)O2)C1 [Example 40, 1-(((5S,7S)-3-(3-cyclobutylisoxazol-5-yl)-7-methyl-2-oxo-1-oxa-3-azaspiro[4.5]decan-7-yl)methyl)-1H-benzo[d]imidazole-6-carbonitrile]
12 | 0.1 to 10 nM | Cc1c(C(C)(C)C)noc1N1C[C@@]2(CCC[C@](C)(Cn3cnc4ccc(C#N)cc43)C2)OC1=O [Example 41, 1-(((5S,7S)-3-(3-(tert-butyl)-4-methylisoxazol-5-yl)-7-methyl-2-oxo-1-oxa-3-azaspiro[4.5]decan-7-yl)methyl)-1H-benzo[d]imidazole-6-carbonitrile]

Second part, the compound before the results:

Row | Compound | IC50
13 | COc1cc(OC)c(N2C[C@@]3(CCC[C@](C)(Cn4cnc5ccc(C#N)cc54)C3)OC2=O)cn1 [Example 22, 1-(((5S,7S)-3-(4,6-Dimethoxyipyridin-3-yl)-7-methyl-2-oxo-1-oxa-3-azasbiro[4.5]decan-7-yl)methyl)-1H-benzo[d]imidazole-6-carbonitrile] | 0.1 to 10 nM
14 | CCOc1cc(C)c(N2C[C@@]3(CCC[C@H](Cn4cnc5ccc(C#N)cc54)C3)OC2=O)cn1 [Example 23, 1-(((5S,7S)-3-(6-Ethoxy-4-methylpyridin-3-yl)-2-oxo-1-oxa-3-azasbiro[4.5]decan-7-yl)methyl)-1H-benzo[d]imidazole-6-carbonitrile] | 10 to 50 nM
15 | CCOc1cc(C)c(N2C[C@@]3(CCC[C@](C)(Cn4cnc5ccc(C#N)cc54)C3)OC2=O)nn1 [Example 24, 1-(((5S,7S)-3-(6-Ethoxy-4-methylpyridazin-3-yl)-7-methyl-2-oxo-1-oxa-3-azaspiro[4.5]decan-7-yl)methyl)-1H-benzo[d]imidazole-6-carbonitrile] | 0.1 to 10 nM
16 | C[C@]1(Cn2cnc3ccc(C#N)cc32)CCC[C@@]2(CN(c3cnc(C(F)(F)F)nc3)C(=O)O2)C1 [Example 25, 1-(((5S,7S)-7-Methyl-2-oxo-3-(2-(trifluoromethyl)pyrimidin-5-yl)-1-oxa-3-azaspiro[4.5]decan-7-yl)methyl)-1H-benzo[d]imidazole-6-carbonitrile] | 0.1 to 10 nM
17 | C[C@]1(Cn2cnc3ccc(C#N)cc32)CCC[C@@]2(CN(c3ncccc3C(F)(F)F)C(=O)O2)C1 [Example 26, 1-(((5S,7S)-7-Methyl-2-oxo-3-(3-(trifluoromethyl)pyridin-2-yl)-1-oxa-3-azaspiro[4.5]decan-7-yl)methyl)-1H-benzo[d]imidazole-6-carbonitrile] | 50 to 500 nM
18 | N#Cc1ccc2ncn(C[C@H]3CCC[C@]4(C3)CN(Cc3csc5ccc(Cl)cc35)C(=O)O4)c2c1 [Example 27, 1-({(5S,7S)-3-[(5-Chloro-1-benzothien-3-yl)methyl]-2-oxo-1-oxa-3-azaspiro[4.5]dec-7-yl}methyl)-1H-benzimidazole-6-carbonitrile] | 0.1 to 10 nM
19 | CCOC(C)c1noc(C(C)(C)CN2C[C@@]3(CCC[C@H](Cn4cnc5ccc(C#N)cc54)C3)OC2=O)n1 (stereo partly drawn) [Example 28, 1-{[(5S,7S)-3-(2-{3-[1-(Ethyloxy)ethyl]-1,2,4-oxadiazol-5-yl}-2-methylpropyl)-2-oxo-1-oxa-3-azaspiro[4.5]dec-7-yl]methyl}-1H-benzimidazole-6-carbonitrile] | 0.1 to 10 nM
20 | Cn1nc(C(C)(C)C)cc1N1C[C@@]2(CCC[C@](C)(Cn3cnc4ccc(C#N)cc43)C2)OC1=O [Example 36, 1-({(5S,7S)-3-[3-(1,1-dimethylethyl)-1-methyl-1H-pyrazol-5-yl]-7-methyl-2-oxo-1-oxa-3-azaspiro[4.5]dec-7-yl}methyl)-1H-benzimidazole-6-carbonitrile] | 50 to 500 nM
21 | CC(C)(C)c1coc(N2C[C@@]3(CCC[C@](C)(Cn4cnc5ccc(C#N)cc54)C3)OC2=O)n1 [Example 42, 1-(((5S,7S)-3-(4-(tert-butyl)oxazol-2-yl)-7-methyl-2-oxo-1-oxa-3-azaspiro[4.5]decan-7-yl)methyl)-1H-benzo[d]imidazole-6-carbonitrile] | 10 to 50 nM
